Experimental data published in patent US8283358B2, “N-sulfonamido polycyclic pyrazolyl compounds” (Elan Pharmaceuticals, Inc., priority 2008, dated 2012).
Like-named read-outs stand apart in the source and are kept apart here.

Biological target: T1, gamma-secretase (partially purified extract of IMR-32 cell membranes; substrate MBP-C125 Swe fusion protein, cleavage at the Aβ40 site) (Homo sapiens, UniProt P49768)
T1 construct: a partially purified extract of IMR-32 cell membranes as the gamma-secretase enzyme preparation; endogenous in cells; host or cells: IMR-32 cell membranes, partially purified extract
Experiment: Gamma-secretase APP enzyme assay (Example A)
Format: biochemical
Conditions: assay described in Example A
Text: The gamma-secretase APP enzyme assay was designed to measure the specific proteolytic cleavage of an APP substrate (MBP-C125 Swe fusion protein) at the Aβ40 site. […] This assay involved two steps beginning with the enzymatic reaction generating a cleavage product that was captured with an immobilized antibody specific for the neo-epitope Aβ40 site. The captured cleavage product was then detected in a sandwich ELISA assay with a biotinylated reporter antibody that is specific to Aβ(17-28). Streptavidin-linked alkaline phosphatase was then added that would generate a fluorescent signal proportional to the amount of cleavage product.
This warmed solution of BigCHAPS (N,N-Bis(3-D-gluconamidopropyl)cholamide) detergent was used to dissolve Brain Extract Type-V (lipid containing a minimum of 40% phosphatidylethanolamine) from Sigma (St. Louis, Mo.) to a concentration of 8 mg/ml. This solution containing BigCHAPS and lipid at 8 mg/ml is then diluted to 0.53 mg/ml lipid with a pre-warmed solution of Hepes and sodium chloride.
Gamma-secretase was then added to a 96-well micro-titre plate and then incubated with various concentrations of inhibitor for 30 minutes at 37° C. MBPC125 substrate was then added to initiate the reaction that would run for two hours at 37° C. The reaction was quenched with the addition of SDS to a final concentration of 0.1% and then 100 μl of the reaction mixture was transferred to a capture ELISA plate and incubated overnight at 4° C. Detection of the cleavage product was performed using a standard sandwich ELISA assay and quantified using a six point standard curve.

[1] = class symbols, read-out: γAPP IC50
[2] = numeric bounds given instead of class symbols, read-out: γAPP IC50

Row | SMILES | IC50 [1] [nM] | also measured
1 | O=S(=O)(c1ccc(C(F)(F)F)cc1)N1C2c3c[nH]nc3C(F)(F)C1c1cccc(F)c12 (stereo not shown) [compound 123] | < 100 | 
2 | O=C1c2n[nH]cc2C2c3c(F)cccc3C1N2S(=O)(=O)c1ccc(C(F)(F)F)cc1 (stereo not shown) [compound 103] | < 100 | 
3 | CC12C(=O)c3[nH]ncc3C(c3ccccc31)N2S(=O)(=O)c1ccc(C(F)(F)F)nc1 (stereo not shown) [compound 276] |  | IC50 [2]: > 30 nM
4 | O=S(=O)(c1ccc(C(F)(F)F)cc1)N1C2Cc3[nH]ncc3C1c1cccc(F)c12 (racemic) [compound 97] | < 100 | 
5 | O=S(=O)(c1ccc(C(F)(F)F)nc1)N1C2Cc3cccc(Br)c3C1Cc1[nH]ncc12 (stereo not shown) [compound 213] | 100 to 499 | 
6 | O=S(=O)(c1ccc(C(F)(F)F)nc1)N1C2c3c[nH]nc3[C@@H](O)C1c1c(F)cccc12 (stereo partly shown) [compound 216] | 100 to 499 | 
7 | O=S(=O)(c1ccc(C(F)(F)F)cc1)N1C2Cc3[nH]ncc3C1c1ccc3ccccc3c12 (stereo not shown) [compound 169] | 100 to 499 | 
8 | O=C1c2[nH]ncc2C2c3cccc(Cl)c3C1N2S(=O)(=O)c1ccc(C(F)(F)F)nc1 (racemic) [compound 264] | < 100 | 
9 | O=S(=O)(c1ccc(C(F)(F)F)nc1)N1C2Cc3[nH]ncc3C1c1cc(Cl)ccc12 (stereo not shown) [compound 221] | 100 to 499 | 
10 | N#Cc1ccc2c(c1)C1Cc3n[nH]cc3C2N1S(=O)(=O)c1ccc(C(F)(F)F)nc1 (stereo not shown) [compound 167] | < 100 | 
11 | O=S(=O)(c1ccc(C(F)(F)F)cc1)N1C2Cc3[nH]ncc3C1c1ccccc12 (stereo not shown) [compound 72] | > 1000 | 
12 | O=S(=O)(c1ccc(C(F)(F)F)cc1)N1C2Cc3cccc(F)c3C1Cc1n[nH]cc12 (stereo not shown) [compound 190] | < 100 | 
13 | O=S(=O)(c1ccc(C(F)(F)F)cc1)N1C2Cc3[nH]ncc3C1c1cc(C(F)(F)F)ccc12 (racemic) [compound 155] | < 100 | 
14 | O=S(=O)(c1ccc(C(F)(F)F)cc1)N1C2Cc3[nH]ncc3C1C=C2c1ccc(F)cc1 (stereo not shown) [compound 60] | 100 to 499 | 
15 | O=S(=O)(c1ccc(C(F)(F)F)nc1)N1C2Cc3[nH]ncc3C1c1c(Cl)cccc12 (single isomer, unassigned) [compound 233] | < 100 | 
16 | CC12C(=O)c3[nH]ncc3C(c3ccccc31)N2S(=O)(=O)c1ccc(C(F)(F)F)cc1 (stereo not shown) [compound 277] | < 100 | 
17 | COC(=O)c1ccc2c(c1)C1c3cn[nH]c3CC2N1S(=O)(=O)c1ccc(C(F)(F)F)nc1 (stereo not shown) [compound 203] | > 1000 | 
18 | O=S(=O)(c1ccc(C(F)(F)F)nc1)N1C2Cc3[nH]ncc3C1c1cc(-c3ccc(F)cc3)ccc12 (single isomer, unassigned) [compound 245] | 100 to 499 | 
19 | O=S(=O)(c1ccc(C(F)(F)F)nc1)N1C2Cc3[nH]ncc3C1c1cc(Cl)ccc12 (racemic) [compound 219] | < 100 | 
20 | Cn1ncc(C2CC3Cc4[nH]ncc4C(C2)N3S(=O)(=O)c2ccc(Cl)cc2)n1 (stereo not shown) [compound 139] |  | IC50 [2]: > 300 nM
21 | O=S(=O)(c1ccc(C(F)(F)F)nc1)N1C2Cc3[nH]ncc3C1c1cc(Cl)ccc12 (stereo not shown) [compound 222] | < 100 | 

Row | SMILES | IC50 [1] [nM] | also measured
22 | O=S(=O)(c1ccc(C(F)(F)F)nc1)N1C2Cc3n[nH]cc3C1c1cc(F)c(F)cc12 (racemic) [compound 105] | < 100 | 
23 | O=S(=O)(c1ccc(C(F)(F)F)cc1)N1C2Cc3c(-c4ccc(F)cc4)cccc3C1Cc1[nH]ncc12 (racemic) [compound 165] | < 100 | 
24 | O=S(=O)(c1ccc(C(F)(F)F)cc1)N1C2Cc3[nH]ncc3C1c1ccccc12 (racemic) [compound 52] | < 100 | 
25 | O=S(=O)(c1ccc(C(F)(F)F)cc1)N1C2Cc3[nH]ncc3C1CC(c1nnn[nH]1)C2 (racemic) [compound 126] | > 1000 | 
26 | O=S(=O)(c1ccc(C(F)(F)F)nc1)N1C2Cc3n[nH]cc3C1c1ncsc12 (stereo not shown) [compound 188] |  | IC50 (γAPP IC50 (nM), class symbols): > 1000 nM
27 | O=S(=O)(c1ccc(Cl)cc1)N1C2Cc3[nH]ncc3C1c1c(F)cccc12 (single isomer, unassigned) [compound 230] | > 1000 | 
28 | O=S(=O)(c1ccc(C(F)(F)F)nc1)N1C2Cc3cccc(Br)c3C1c1cn[nH]c1C2 (stereo not shown) [compound 218] | < 100 | 
29 | O=S(=O)(c1ccc(C(F)(F)F)nc1)N1C2Cc3n[nH]cc3C1c1cc(F)c(F)cc12 (single isomer, unassigned) [compound 110] | > 1000 | 
30 | O=S(=O)(c1ccc(C(F)(F)F)nc1)N1C2Cc3n[nH]cc3C1c1c(F)ccc(F)c12 (stereo not shown) [compound 150] | < 100 | 
31 | O=S(=O)(c1ccc(C(F)(F)F)nc1)N1C2Cc3[nH]ncc3C1c1cc(Br)ccc12 (stereo not shown) [compound 251] | 100 to 499 | 
32 | O=S(=O)(c1ccc(C(F)(F)F)nc1)N1C2Cc3n[nH]cc3C1c1ncsc12 (stereo not shown) [compound 187] |  | IC50 (γAPP IC50 (nM), class symbols): 100 to 499 nM
33 | C=C1c2[nH]ncc2C2c3cccc(Cl)c3C1N2S(=O)(=O)c1ccc(C(F)(F)F)nc1 (stereo not shown) [compound 272] | < 100 | 
34 | O=S(=O)(c1ccc(C(F)(F)F)nc1)N1C2Cc3[nH]ncc3C1c1c(-c3ccc(F)cc3)cccc12 (racemic) [compound 273] |  | IC50 [2]: > 100 nM
35 | O=C1c2[nH]ncc2C2c3c(F)cccc3C1N2S(=O)(=O)c1ccc(Cl)cc1 (stereo not shown) [compound 236] | < 100 | 
36 | O=S(=O)(c1ccc(C(F)(F)F)nc1)N1C2c3c[nH]nc3[C@H](O)C1c1c(F)cccc12 (stereo partly shown) [compound 239] | > 1000 | 
37 | COC(=O)c1cccc2c1C1Cc3[nH]ncc3C2N1S(=O)(=O)C1=CC=C(C(F)(F)F)NC1 (racemic) [compound 253] | < 100 | 
38 | O=S(=O)(c1ccc(C(F)(F)F)nc1)N1C2Cc3n[nH]cc3C1c1c(F)cccc12 (stereo not shown) [compound 129] |  | IC50 (γAPP IC50 (nM), numeric bounds given instead of class symbols): > 10 nM
39 | O=S(=O)(c1ccc(C(F)(F)F)nc1)N1C2Cc3[nH]ncc3C1c1c(Cl)cccc12 (single isomer, unassigned) [compound 232] | 500 to 999 | 
40 | O=S(=O)(c1ccc(C(F)(F)F)nc1)N1C2Cc3[nH]ncc3C1c1ncc(F)cc12 (single isomer, unassigned) [compound 260] |  | IC50 (γAPP IC50 (nM), class symbols): < 100 nM
41 | Cn1ncc2c1C1Cc3[nH]ncc3C2N1S(=O)(=O)c1ccc(C(F)(F)F)nc1 (racemic) [compound 204] |  | IC50 (γAPP IC50 (nM), class symbols): < 100 nM
42 | Cc1cc(F)cc2c1C1c3c[nH]nc3CC2N1S(=O)(=O)c1ccc(C(F)(F)F)nc1 (stereo not shown) [compound 159] | < 100 | 

Row | SMILES | IC50 [1] [nM] | also measured
43 | O=S(=O)(c1ccc(C(F)(F)F)nc1)N1C2Cc3n[nH]cc3C1c1cccc(C3CC3)c1C2 (stereo not shown) [compound 134] | < 100 | 
44 | O=S(=O)(c1ccc(C(F)(F)F)nc1)N1C2Cc3[nH]ncc3C1CC(c1ccc3c(c1)OCO3)C2 (stereo not shown) [compound 108] | < 100 | 
45 | CC12C(=O)c3[nH]ncc3C(c3ccccc31)N2S(=O)(=O)c1ccc(C(F)(F)F)nc1 (stereo not shown) [compound 275] | < 100 | 
46 | O=S(=O)(c1ccc(Cl)cc1)N1C2Cc3[nH]ncc3C1CC(c1c[nH]nn1)C2 (racemic) [compound 93] | < 100 | 
47 | O=S(=O)(c1ccc(C(F)(F)F)nc1)N1C2Cc3[nH]ncc3C1c1cc(-c3ccc(F)cc3)ccc12 (stereo not shown) [compound 241] | < 100 | 
48 | O=S(=O)(c1ccc(C(F)(F)F)nc1)N1C2Cc3n[nH]cc3C1c1cc(F)c(F)cc12 (single isomer, unassigned) [compound 111] | < 100 | 
49 | O=S(=O)(c1ccc(C(F)(F)F)nc1)N1[C@@H]2c3cn[nH]c3[C@H](F)[C@H]1c1cccc(F)c12 [compound 268] | > 1000 | 
50 | O=S(=O)(c1ccc(C(F)(F)F)nc1)N1C2Cc3[nH]ncc3C1c1nc(C3CC3)ccc12 (stereo not shown) [compound 255] | 100 to 499 | 
51 | O=S(=O)(c1ccc(C(F)(F)F)nc1)N1[C@H]2c3cn[nH]c3[C@H](F)[C@@H]1c1cccc(F)c12 [compound 267] | < 100 | 
52 | O=S(=O)(c1ccc(C(F)(F)F)cc1)N1C2C=C(C3CC3)C1c1c[nH]nc1C2 (stereo not shown) [compound 44] | < 100 | 
53 | O=S(=O)(c1ccc(C(F)(F)F)cc1)N1C2Cc3[nH]ncc3C1c1ccc3ccccc3c12 (stereo not shown) [compound 160] | < 100 | 
54 | O=S(=O)(c1ccc(C(F)(F)F)nc1)N1C2Cc3[nH]ncc3C1c1cc(-c3ccc(F)cc3)ccc12 (single isomer, unassigned) [compound 244] | > 1000 | 
55 | O=S(=O)(c1ccc(C(F)(F)F)nc1)N1C2Cc3n[nH]cc3C1c1c(F)ccc(F)c12 (stereo not shown) [compound 131] | < 100 | 
56 | O=C1c2[nH]ncc2C2c3c(F)cccc3C1N2S(=O)(=O)c1ccc(C(F)(F)F)nc1 (stereo not shown) [compound 161] | < 100 | 
57 | COC(=O)c1cccc2c1C1Cc3[nH]ncc3C2N1S(=O)(=O)c1ccc(C(F)(F)F)nc1 (stereo not shown) [compound 226] | < 100 | 
58 | O=S(=O)(c1ccc(C(F)(F)F)nc1)N1C2Cc3[nH]ncc3C1c1ccccc12 (stereo not shown) [compound 196] |  | IC50 [2]: > 30 nM
59 | O=C1c2[nH]ncc2C2c3ccccc3C1N2S(=O)(=O)c1ccc(C(F)(F)F)cc1 (stereo not shown) [compound 173] | < 100 | 
60 | O=S(=O)(c1ccc(C(F)(F)F)cc1)N1C2Cc3[nH]ncc3C1c1c2ccc2ccccc12 (stereo not shown) [compound 171] | 100 to 499 | 
61 | Cn1nncc1C1CC2Cc3[nH]ncc3C(C1)N2S(=O)(=O)c1ccc(Cl)cc1 (racemic) [compound 136] | < 100 | 
